From patent publication US10745401B2, “Condensed lactam derivative” (Sumitomo Dainippon Pharma Co., Ltd., priority 2018, dated 2020)

Legend:
human 5-HT2A receptor [1] = target: T1, human 5-HT2A receptor (Homo sapiens (Human), UniProt P28223); assay: Test 1: binding activity for human 5-HT2A receptor ([3H]Ketanserin, CHO cell membrane fraction)
Experimental: Test 1: Evaluation of Binding Activity for Human 5-HT1A Receptor, Human 5-HT2A Receptor, and Human D2 Receptor
Binding affinity of the present compound for human 5-HT1A receptor, human 5-HT2A receptor, and human D2 receptor was measured by the following procedures.
Each mixture was incubated at room temperature for 60 minutes. Then, the mixture was added quickly on a glassfiber filter plate (Multiscreen FB, Millipore, Inc.) coated with 0.3% aqueous polyethylenimine, and vacuum-filtered. Radioactivity remaining on the filter was measured with a liquid scintillation counter (PerkinElmer, Inc.). Binding inhibition rate was calculated from the following formula.
Ki of each compound was calculated from the following formula. Binding inhibition constant (Ki)=IC50/(1+S/Kd) wherein S is concentration of ligand; Kd is a binding dissociation constant of ligand to membrane, which is calculated from a saturated binding experiment conducted with the same cell membrane. A small Ki value means strong binding ability to a receptor.

human 5-HT1A receptor [2] = target: T2, human 5-HT1A receptor (Homo sapiens (Human), UniProt P08908); assay: Test 2: agonist activity for human 5-HT1A receptor ([35S]GTPγS binding); assay type: biochemical; details: for Emax at 10 µM: agonist activity in the presence of 10 μM of compound, relative to 100 μmol/L 5-HT; for EC50: [35S]GTPγS binding, concentration at which half the activity of Emax was obtained
T2 sequence (P08908 whole entry): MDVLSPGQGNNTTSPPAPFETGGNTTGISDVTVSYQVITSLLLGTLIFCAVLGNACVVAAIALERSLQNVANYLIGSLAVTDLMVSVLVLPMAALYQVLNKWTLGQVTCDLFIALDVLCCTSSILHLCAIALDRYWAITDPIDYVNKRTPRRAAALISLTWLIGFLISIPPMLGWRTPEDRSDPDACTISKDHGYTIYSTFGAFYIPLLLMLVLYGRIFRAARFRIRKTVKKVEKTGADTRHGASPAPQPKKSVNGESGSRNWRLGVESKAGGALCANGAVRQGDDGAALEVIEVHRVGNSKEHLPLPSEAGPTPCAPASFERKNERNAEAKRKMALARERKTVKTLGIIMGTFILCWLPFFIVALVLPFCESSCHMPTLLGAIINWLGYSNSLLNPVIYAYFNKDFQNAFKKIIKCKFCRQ
Outline: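 Membranes from CHO cells expressing human 5-HT1A incubated with compound, GDP-containing buffer and [35S]GTPγS for 60 min at room temperature. Bound radioactivity collected by glass-fibre filtration and counted by liquid scintillation; agonist activity derived from a formula.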

human 5-HT2A receptor [3] = target: T1, human 5-HT2A receptor; assay: Test 3: antagonist activity for human 5-HT2A receptor (aequorin luminescence, CHO-K1 cells); assay type: cell-based; details: for IC50: CHO-K1 cells, 1 nmol/L 5-HT
Experimental: Test 3: Evaluation of Antagonist Activity for Human 5-HT2A Receptor
Aequorin, Gα16 protein, and each receptor were transiently expressed in CHO-K1 cells (Chinese hamster ovary). […] Each compound dissolved in DMSO was added thereto, and changes in luminescence were measured by FDSS/μCELL functional drug screening system (Hamamatsu Photonics K.K.). Antagonist activity was calculated from the following formula. Antagonist activity (%)=100×{(Luminescence of well in the presence of 1 nmol/L 5-HT−Luminescence of well containing solvent)−(Luminescence of well in the presence of test compound and 1 nmol/L 5-HT−Luminescence of well containing solvent)}/(Luminescence of well in the presence of 1 nmol/L 5-HT−Luminescence of well containing solvent)

[4] = Test 4: metabolic stability test in human hepatic microsome; assay type: in vitro ADME; details: 0.1 mg/mL microsome, 0.1 μmol/L compound, 37° C., 30 minutes
Outline: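 Compound at 0.1 μmol/L incubated 30 min at 37° C with human liver microsomes (0.1 mg/mL) and NADPH (3.2 mmol/L) in 25 mmol/L phosphate buffer, pH 7.4. Residual compound measured by LC-MS; stability (mL/min/mg protein) = −LN(residual ratio)/30/0.1.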

hERG channel = hERG channel (Homo sapiens (Human), UniProt Q12809); assay: Test 6-1: inhibitory activity for hERG channel (auto patch clamp, Qpatch); assay type: cell-based; details: whole cell auto patch clamp, hERG-CHO cells; read-out: hERG inhibition IC50
Sequence of hERG channel (Q12809 whole entry): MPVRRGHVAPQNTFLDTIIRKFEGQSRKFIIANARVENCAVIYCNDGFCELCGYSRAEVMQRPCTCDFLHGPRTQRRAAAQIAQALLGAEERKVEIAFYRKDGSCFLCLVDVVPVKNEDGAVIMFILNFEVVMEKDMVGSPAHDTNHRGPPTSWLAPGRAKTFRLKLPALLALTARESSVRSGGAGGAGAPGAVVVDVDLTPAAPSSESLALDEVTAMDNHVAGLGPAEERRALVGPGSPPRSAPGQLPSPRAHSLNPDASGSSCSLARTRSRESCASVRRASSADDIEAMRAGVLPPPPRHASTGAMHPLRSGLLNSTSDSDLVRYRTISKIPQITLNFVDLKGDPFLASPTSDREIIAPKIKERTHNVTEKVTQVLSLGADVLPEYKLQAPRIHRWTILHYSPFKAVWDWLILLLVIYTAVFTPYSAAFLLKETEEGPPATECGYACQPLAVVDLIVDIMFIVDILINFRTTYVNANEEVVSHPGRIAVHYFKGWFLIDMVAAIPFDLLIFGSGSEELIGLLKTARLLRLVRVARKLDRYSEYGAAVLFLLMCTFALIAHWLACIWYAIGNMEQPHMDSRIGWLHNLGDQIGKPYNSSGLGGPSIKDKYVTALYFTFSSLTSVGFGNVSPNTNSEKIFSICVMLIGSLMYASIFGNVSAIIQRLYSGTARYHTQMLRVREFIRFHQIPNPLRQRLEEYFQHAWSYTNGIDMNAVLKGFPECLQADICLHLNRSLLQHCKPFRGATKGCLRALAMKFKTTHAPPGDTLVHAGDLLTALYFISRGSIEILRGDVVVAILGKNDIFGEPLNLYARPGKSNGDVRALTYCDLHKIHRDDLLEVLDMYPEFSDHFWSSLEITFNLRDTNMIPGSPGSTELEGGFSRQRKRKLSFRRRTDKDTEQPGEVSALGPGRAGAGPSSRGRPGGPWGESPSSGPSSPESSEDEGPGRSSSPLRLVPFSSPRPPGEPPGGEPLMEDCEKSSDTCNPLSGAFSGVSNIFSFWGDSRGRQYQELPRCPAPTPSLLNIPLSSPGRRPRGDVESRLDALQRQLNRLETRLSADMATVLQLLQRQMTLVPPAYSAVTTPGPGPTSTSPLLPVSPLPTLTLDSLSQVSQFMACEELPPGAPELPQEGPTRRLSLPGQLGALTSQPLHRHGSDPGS
Outline: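 Whole-cell patch clamp on an automated system using CHO cells stably expressing human hERG (IKr); 15 s pulse interval. Four increasing compound concentrations applied cumulatively; mean peak tail current from last 3 stimulations per concentration used. IC50 from inhibition versus pre-compound current, fitted by Hill equation.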

human 5-HT1A receptor [5] = target: T2, human 5-HT1A receptor; assay: Test 1: binding activity for human 5-HT1A receptor ([3H]8-OH-DPAT, CHO cell membrane fraction)
Outline: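 Membranes incubated with [3H]8-OH-DPAT and compound for 60 min at room temperature, then filtered on polyethylenimine-coated glass-fibre plates and counted by liquid scintillation. IC50 from Hill analysis; Ki = IC50/(1+S/Kd), Kd from saturation binding on the same membranes.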

human D2 receptor = human D2 receptor (Homo sapiens (Human), UniProt P14416); assay: Test 1: binding activity for human D2 receptor ([3H]Spiperone, CHO cell membrane fraction); details: for Ki: human D2 receptor, [3H]Spiperone; for D2 Ki/5-HT1A Ki / D2 Ki/5-HT2A Ki: selectivity ratio
Sequence of human D2 receptor (P14416 whole entry): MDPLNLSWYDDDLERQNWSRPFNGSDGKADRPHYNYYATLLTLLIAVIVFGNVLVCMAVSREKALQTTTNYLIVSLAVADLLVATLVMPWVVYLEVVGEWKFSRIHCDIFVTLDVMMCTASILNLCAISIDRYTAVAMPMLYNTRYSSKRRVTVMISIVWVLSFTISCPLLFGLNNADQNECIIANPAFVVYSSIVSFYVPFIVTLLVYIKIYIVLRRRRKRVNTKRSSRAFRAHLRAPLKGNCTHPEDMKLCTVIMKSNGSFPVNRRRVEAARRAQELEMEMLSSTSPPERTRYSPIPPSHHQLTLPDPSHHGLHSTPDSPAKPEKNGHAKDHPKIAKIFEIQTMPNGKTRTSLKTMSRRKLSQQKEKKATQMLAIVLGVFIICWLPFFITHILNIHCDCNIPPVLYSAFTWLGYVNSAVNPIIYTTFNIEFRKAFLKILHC
Outline: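 CHO-cell membranes with [3H]ketanserin (5-HT2A) or [3H]spiperone (D2) were incubated with compound for 60 min at room temperature, then filtered, and bound radioactivity was counted by scintillation. Ki = IC50/(1+S/Kd), with ligand Kd from saturation binding on the same membranes.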

T1 sequence (P28223 whole entry): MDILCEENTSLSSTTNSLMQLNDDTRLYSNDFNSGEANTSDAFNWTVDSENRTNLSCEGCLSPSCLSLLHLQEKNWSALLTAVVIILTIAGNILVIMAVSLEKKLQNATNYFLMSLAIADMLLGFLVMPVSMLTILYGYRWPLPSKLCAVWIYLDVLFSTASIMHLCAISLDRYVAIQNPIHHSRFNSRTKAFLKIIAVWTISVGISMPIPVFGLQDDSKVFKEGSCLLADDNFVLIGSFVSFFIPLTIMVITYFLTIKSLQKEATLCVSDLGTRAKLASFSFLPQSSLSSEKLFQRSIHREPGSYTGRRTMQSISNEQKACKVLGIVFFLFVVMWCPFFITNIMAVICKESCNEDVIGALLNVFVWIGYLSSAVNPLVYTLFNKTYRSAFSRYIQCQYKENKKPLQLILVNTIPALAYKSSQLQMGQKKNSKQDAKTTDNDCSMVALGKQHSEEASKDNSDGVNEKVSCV

Structure (SMILES) | Ki (human 5-HT2A receptor [1]) [nM] | Emax at 10 µM (human 5-HT1A receptor [2]) [%] | IC50 (human 5-HT2A receptor [3]) [nM] | Metabolic stability in human hepatic microsome [4] [mL/min/mg protein] | IC50 (hERG channel) [nM] | Ki (human 5-HT1A receptor [5]) [nM] | activity at 10 µM (human 5-HT2A receptor [3]; CHO-K1) [%] | Ki (human D2 receptor) [nM] | D2 Ki/5-HT1A Ki (human D2 receptor) | D2 Ki/5-HT2A Ki (human D2 receptor) | EC50 (human 5-HT1A receptor [2]) [nM] | IC50 (human 5-HT2A receptor [3]; aequorin luminescence) [nM]
Cn1ncc2c1CCCC(CCN1CCN(c3nsc4ccccc34)CC1)C2=O (stereo not shown) [Example 31] | 0.47 | 40 | 2.71 | 0.305 | 1200 | – | – | – | – | – | – | –
O=C1c2ncccc2CCN1CCN1CCC(c2noc3cc(F)c(F)cc23)CC1 [Example 148] | 43.2 | – | – | – | – | 156 | 45 | – | – | – | – | –
Cn1cc2c(n1)CCN(CCN1CCC(c3noc4ccccc34)C1)C2=O (stereo not shown) [Example 174] | 71.7 | 50 | – | – | – | 78.1 | – | > 10000 | >128.0 | >139.5 | 193 | 723
COc1ccc2onc(C3CCN(CCN4CCc5cccnc5C4=O)CC3)c2c1 [Example 142] | 164 | 54 | – | – | – | 1.83 | – | > 10000 | >5452.0 | >61.0 | 8.8 | 3910
O=C1c2ncccc2CCN1CCN1CCC(c2nsc3ccccc23)CC1 [Example 26] | 1.92 | 50 | 4.49 | <0.01 | 800 | – | – | – | – | – | – | –
Cc1noc2c1C(=O)N(CCN1CCN(c3nsc4ccccc34)CC1)CCC2 [Example 40] | 4.86 | 60 | 8.7 | 0.278 | 1800 | – | – | – | – | – | – | –
O=c1c2cccnc2ccn1CCN1CCN(c2noc3ccccc23)CC1 [Example 115] | 1.07 | 37 | – | <0.05 | 5000 | – | – | > 10000 | – | – | – | 4.28
O=C1c2ncccc2CCC1CCN1CCN(c2noc3ccccc23)CC1 (stereo not shown) [Example 23] | 6 | 55 | 7.29 | 0.109 | 1900 | – | – | – | – | – | – | –
Cc1nc2c(o1)CCCN(CCN1CCN(c3nsc4ccccc34)CC1)C2=O [Example 52] | 4.7 | 77 | 12 | 0.043 | 4900 | – | – | – | – | – | – | –
O=C1c2ncccc2CCN1CCN1CCC(c2noc3c(F)cccc23)CC1 [Example 140] | 118 | 27 | – | – | – | 168 | – | > 10000 | >59.5 | >84.7 | 2300 | 373
CC1CN(CCN2CCC(c3noc4ccccc34)CC2)C(=O)c2ccn(C)c21 (stereo not shown) [Example 82] | 0.87 | 61 | 46 | 0.072 | 1900 | – | – | – | – | – | – | –
O=C1c2ncccc2CCN1CCN1CCN(c2noc3ccc(F)cc23)CC1 [Example 147] | 124 | – | – | – | – | 124 | – | > 10000 | – | – | 436 | 415
Cn1cc2c(n1)C(=O)N(CCN1CCN(c3nsc4ccccc34)CC1)CCC2 [Example 49] | 1.8 | 64 | 7.02 | 0.063 | 5900 | – | – | – | – | – | – | –
O=C1c2ncccc2CCN1CCN1CCN(c2nsc3ccccc23)CC1 [Example 7] | 2.63 | 55 | 7.83 | 0.041 | 5200 | – | – | – | – | – | – | –
Cc1noc2c1C(=O)N(CCN1CCN(c3nsc4ccccc34)CC1)CC2 [Example 34] | 0.7 | 54 | 8 | 0.124 | 2500 | – | – | – | – | – | – | –
CC1CN(CCN2CCN(c3noc4ccccc34)CC2)C(=O)c2ccn(C)c21 (stereo not shown) [Example 83] | 4 | 61 | 49 | 0.135 | 8000 | – | – | – | – | – | – | –
Cc1cc2c(C3CCN(CCN4CCc5cccnc5C4=O)CC3)noc2cc1F [Example 6] | 68 | 31 | 651 | 0.061 | 2200 | – | – | – | – | – | – | –
O=c1c2cccnc2ccn1CCN1CCN(c2nsc3ccccc23)CC1 [Example 10] | 0.49 | – | 0.71 | – | – | 20 | – | – | – | – | 119 | –
Cc1nc2c(o1)C(=O)N(CCN1CCN(c3nsc4ccccc34)CC1)CCC2 [Example 46] | 2.8 | 58 | 52 | 0.018 | 3700 | – | – | – | – | – | – | –
Cc1nc2c(o1)C(=O)N(CCN1CCN(c3nsc4ccccc34)CC1)CC2 [Example 45] | 3.1 | 65 | 27 | 0.032 | 7000 | – | – | – | – | – | – | –
Cn1cc2c(n1)CCN(CCN1CCN(c3noc4ccccc34)CC1)C2=O [Example 81] | 10 | 60 | 83 | <0.01 | > 10000 | – | – | – | – | – | – | –
O=C1c2ncccc2CCC1CCN1CCN(c2nsc3ccccc23)CC1 (stereo not shown) [Example 25] | 3.01 | 57 | 5.54 | 0.398 | 400 | – | – | – | – | – | – | –
O=C1c2cnc(C(F)(F)F)cc2CCN1CCN1CCN(c2nsc3ccccc23)CC1 [Example 110, 2-{2-[4-(1,2-Benzoisothiazol-3-yl)piperazin-1-yl]ethyl}-6-(trifluoromethyl)-3,4-dihydro-2,7-naphthyridin-1(2H)-one] | 2.6 | 65 | 42.4 | 0.353 | 2400 | – | – | – | – | – | – | –
Cn1ccc2c1CCCN(CCN1CCN(c3nsc4ccccc34)CC1)C2=O [Example 165] | 1.2 | 44 | – | 0.265 | 7900 | – | – | – | – | – | – | 15.4
Cc1ccc2c(n1)C(=O)N(CCN1CCC(c3noc4ccccc34)CC1)CC2 [Example 184] | 27 | 59 | – | <0.05 | 800 | – | – | – | – | – | – | 95.5
O=C1c2cncnc2CCN1CCN1CCC(c2noc3ccccc23)CC1 [Example 57] | 7.6 | 61 | 76.7 | 0.013 | 2200 | – | – | – | – | – | – | –
O=C1c2ncccc2CCN1CCN1CCC(c2noc3ccccc23)CC1 [Example 22, 7-{2-[4-(1,2-Benzoisoxazol-3-yl)piperidin-1-yl]ethyl}-6,7-dihydro-1,7-naphthyridin-8(5H)-one] | 4.4 | 52 | 94 | 0.039 | 1900 | – | – | 2600 | – | – | – | –
Cc1c2c(nn1C)CCN(CCN1CCN(c3noc4ccccc34)CC1)C2=O [Example 171] | 2.6 | 56 | – | <0.05 | 6600 | – | – | – | – | – | – | 45.9
